Legend:
AGE-BSA = target: T1, AGE-BSA (Bos taurus, UniProt P02769); assay: In-vitro AGE breaking activity by ELISA; format: biochemical, Bovine; conditions: 37° C., 24 hours
T1 construct: Bovine serum albumin (fraction V) (BSA); from tissue; host or cells: bovine serum (fraction V); glycated in house with 1.6 M glucose at 37 °C for 16 weeks
Protocol: AGE breaking activity has been confirmed by the screening procedure as mentioned below:
Methods of experiment: Elisa (Enzyme Linked Immunosorbent Assay)
160 mg/ml of protein, bovine serum albumin, BSA and 1.6M glucose sugar were dissolved in phosphate buffered saline, PBS. Sodium azide was added at 0.02% concentration as a preservative. The solution was filtered asceptically through a […] filter and kept for aging at 37° C. for 16 weeks. After 16 weeks the solution was dialyzed against PBS, aliquoted and stored at −20° C.
To determine the AGE breaking activity, 10 μg/ml of the 16 weeks AGE-BSA was incubated with different concentrations of the test compounds at 37° C. for 24 hours and AGE breaking activity of the test compounds by ELISA was determined.
ELISA was performed as follows
1. Different concentrations of 16 weeks AGE-BSA were coated on a microtiter plate as standard. Each concentration is coated in triplicates.
2. The test samples were coated on microtiter plate at a concentration of 5 ng to 20 ng per well in triplicates
3. The plate was incubated at 37° C. for one hour.
4. After incubation the plate was washed with PBST (PBS with 0.05% Tween 20).
5. Blocking with 5% skimmed milk in PBS at 37° C. for one hour was done.
6. The plate was washed with PBST.
7. Primary antibody against AGE-BSA was added and the plate is incubated at 37° C. for one hour.
8. The plate was washed with PBST
9. Secondary antibody anti rabbit HRPO (Horse-Radish Per Oxidase) conjugate was added and the plate is incubated at 37° C. for one hour.
10. The plate was washed with PBST.
11. Colour development with OPD (orthophenylenediamine dihydrochloride) and hydrogen peroxide was done.
12. OD (optical density) at (450 nm reading-620 nm reading) was measured after incubation at 37° C. for 15 minutes with Microplate ELISA Reader
The breaker activity of the compounds were determined by the following formula: [formula]
OD450-620Control=Absorbance of 20 ng AGE-BSA after incubation at 37° C. for 24 hours without test compound
OD450-620Test=Absorbance of 20 ng AGE-BSA after incubation at 37° C. for 24 hours with required concentration of test compound
Using specific examples, the % AGE breaking activity was calculated and recorded in Table 2.

[1] = Free radical scavenging activity on ABTS radical cation; format: biochemical
Protocol: This method measures the relative ability of free radical scavenging substances to scavenge the ABTS^.+ i.e. 2,2-Azino-bis-(3-ethyl benzo thiazoline-6-sulfonate) radical cation as compared to a standard amount of standard or free radical scavengers antioxidants. Incubation of ABTS with Peroxidase (metmyoglobin) and hydrogen peroxide results in the production of radical cation ABTS^.+. This species is blue-green in colour and can be detected at 730 nm. Antioxidants or free radical scavengers in the added sample that causes suppression of the color to a degree that is proportional to their concentration.
Preparation of Buffer Solutions
A. Phosphate Citrate Buffer (pH 5.0). 48.5 ml of 0.1M citric acid with sufficient 0.2M disodium hydrogen phosphate to produce 100 ml.
B. Phosphate Buffer Saline (PBS): Dissolve 40.0 g of NaCl, 1.0 g of KCl, 1.0 g of KH2PO4 and 3.05 g of Na2HPO4 in 1 liter milli-Q water. Dilute 200 ml of above solution to 1 liter with milli-Q water (pH 7.4-7.6).
C. 3 μM stock solution of Peroxidase was prepared in phosphate buffer saline pH 7.4(PBS).
D. 1.08 mM stock solution of Hydrogen peroxide was prepared in phosphate buffer saline pH 7.4 (PBS).
Preparation of ABTS Stock Solution
1 tablet (10 mg) was dissolved in phosphate citrate buffer (pH 5.0).
Preparation of ABTS Working Solution
5.0 ml of ABTS stock solution was diluted with PBS to 20 ml.
Preparation of Horse Radish Peroxidase Stock Solution
320 μg of the enzyme was dissolved in 2.5 ml of PBS.
Preparation of Hydrogen Peroxide (1.08 mM) Solution
12 μl of Hydrogen Peroxide (30% w/v) was diluted to 100 ml with PBS. […]
Preparation of ABTS Radical Stock Solution
To 18 ml of ABTS stock solution, 100 μl of Horseradish Peroxidase stock solution was added.
As soon as 1.5 ml of hydrogen peroxide solution was added to the above solution, blue-green colour of the ABTS radicals appeared. This solution was incubated at 30° C. for 30 min.
Preparation of Control Solution
980 μl of ABTS radical stock solution was added to an eppendorf tube. To it was added 100 μl of various PBS solution.
Preparation of test Solution
980 μl of ABTS radical stock solutions were added to different eppendorf tubes. To it were added 100 μl of various concentrations of drug solution.
Measurement of Absorbance (O.D)
The absorbance of control and test samples was recorded immediately at 730 nm taking PBS as blank.
Calculation: The percent antioxidant activity was calculated according to the formula. % Antioxidant activity=[O.D of test sample/O.D of control*100]−100.

T1 sequence (P02769 25-607): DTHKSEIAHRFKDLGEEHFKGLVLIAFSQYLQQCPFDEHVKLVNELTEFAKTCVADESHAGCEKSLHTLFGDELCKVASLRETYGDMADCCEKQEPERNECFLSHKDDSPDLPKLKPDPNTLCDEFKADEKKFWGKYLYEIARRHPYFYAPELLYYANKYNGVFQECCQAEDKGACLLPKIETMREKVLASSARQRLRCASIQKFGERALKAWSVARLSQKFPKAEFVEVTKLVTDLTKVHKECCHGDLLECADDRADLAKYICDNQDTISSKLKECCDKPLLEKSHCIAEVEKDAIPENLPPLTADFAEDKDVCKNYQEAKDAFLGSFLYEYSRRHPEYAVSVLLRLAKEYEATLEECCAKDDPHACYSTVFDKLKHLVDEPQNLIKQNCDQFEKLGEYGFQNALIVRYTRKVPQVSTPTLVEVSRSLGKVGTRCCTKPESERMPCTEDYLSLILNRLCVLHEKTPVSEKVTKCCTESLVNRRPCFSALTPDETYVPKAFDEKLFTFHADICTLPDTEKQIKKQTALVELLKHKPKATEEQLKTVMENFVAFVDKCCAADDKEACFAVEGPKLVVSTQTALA

| Compound | % Breakage (AGE-BSA; 5 mM test compound) [%] | % Breakage (AGE-BSA; 20 mM test compound) [%] | Relative Free Radical Scavenging Activity (%) on ABTS ([1]; 11.5 μM) [%] | Relative Free Radical Scavenging Activity (%) on ABTS ([1]; 23.0 μM) [%] | Relative Free Radical Scavenging Activity (%) on ABTS ([1]; 46.0 μM) [%] | Relative Free Radical Scavenging Activity (%) on ABTS ([1]; 92.5 μM) [%] | Relative Free Radical Scavenging Activity (%) on ABTS ([1]; 925 μM) [%] | % Breakage (AGE-BSA; 10 mM test compound) [%] | % Breakage (AGE-BSA; 25 mM test compound) [%] |
| --- | --- | --- | --- | --- | --- | --- | --- | --- | --- |
| O=C(C[n+]1cccc(C(=O)NNC(=O)c2ccc[n+](CC(=O)c3ccccc3)c2)c1)c1ccccc1.[Br-].[Br-] [Compound 1, N,N′-bis[3-carbonyl-1-(2-phenyl-2-oxoethyl)-pyridinium]hydrazine dibromide] | 13 |  |  |  |  |  |  |  |  |
| CCOC(=O)C[n+]1cccc(C(=O)NCCOC(=O)c2ccccc2)c1.[Br-] [Compound 7, 1-(2-ethoxy-2-oxoethyl)-3-(2-(benzoyloxy)ethylaminocarbonyl)pyridinium bromide] |  | 36 |  |  |  |  |  |  |  |
| O=C(NCCOC(=O)c1ccccc1)c1ccc[n+](CC(=O)c2ccc(Cl)cc2Cl)c1.[Br-] [Compound 8, 1-(2-(2′,4′-dichlorophenyl)-2-oxoethyl)-3-(2-(benzoyloxy)ethylamino-carbonyl)pyridinium bromide] |  |  | 40.8 | 53.7 | 72.6 | 81.2 | 100 |  |  |
| CC(=O)OCCOC(=O)c1ccc[n+](CC(=O)c2ccccc2)c1.[Br-] [Compound 16, 1-(2-phenyl-2-oxoethyl)-3-(2-(acetoxy)ethyloxycarbonyl)pyridinium bromide] |  |  |  |  |  |  |  | 16 |  |
| CCOC(=O)C[n+]1cccc(C(=O)OCCOC(=O)c2ccccc2)c1.[Br-] [Compound 17, 1-(2-ethoxy-2-oxoethyl)-3-(2-(benzoyloxy)ethyloxycarbonyl)pyridinium bromide] |  |  |  |  |  |  |  | 19 |  |
| O=C(NCCOC(=O)c1ccccc1)c1cc[n+](CC(=O)c2cccs2)cc1.[Br-] [Compound 18, 1-(2-thien-2′-yl-2-oxoethyl)-4-(2-(benzoyloxy)ethylaminocarbonyl)pyridinium bromide] |  |  | 41.8 | 59.5 | 75.2 | 91.0 | 100 |  |  |
| O=C(C[n+]1cccc(C(=O)NCCOC(=O)c2ccccc2)c1)Nc1ccccc1.[Cl-] [Compound 23, 1-(2-phenylamino-2-oxoethyl)-3-((benzoyloxy)ethylaminocarbonyl)pyridinium chloride] |  |  |  |  |  |  |  | 37 | 90 |
| Cc1ccc(S(=O)(=O)NNC(=O)c2ccc[n+](CC(=O)Nc3ccccc3)c2)cc1.[Cl-] [Compound 27, 1-(2-phenylamino-2-oxoethyl)-3-((4-methylphenyl)sulfonyl hydrazinocarbonyl)pyridinium chloride] |  |  | 43.9 | 55.5 | 75.3 | 99.6 | 100 |  |  |
| O=C(C[n+]1cccc(C(=O)NNS(=O)(=O)Cc2ccccc2)c1)c1ccccc1.[Br-] [Compound 31, 1-(2-phenyl-2-oxoethyl)-3-((phenylmethyl)sulfonyl hydrazinocarbonyl)pyridinium bromide] |  |  | 41.6 | 57.7 | 66.9 | 99.2 | 100 |  |  |
| O=C(CCC1CCCCC1)NNC(=O)c1ccc[n+](CC(=O)c2cccs2)c1.[Br-] [Compound 34, 1-(2-thien-2′-yl-2-oxoethyl)-3-((2-(1-oxo-3-cyclohexyl)-ethyl)-hydrazinocarbonyl)-pyridinium bromide] |  |  | 50.3 | 53.8 | 65.4 | 80.4 | 100 |  |  |
| O=C1CCCC(CCNNC(=O)c2ccc[n+](CC(=O)Nc3ccccc3)c2)C1.[Br-] (stereo not shown) [Compound 35, 1-(2-phenylamino-2-oxoethyl)-3-({2-(1-oxo-3-cyclohexyl)-ethyl}-hydrazinocarbonyl}pyridinium bromide] |  |  | 50.5 | 63.4 | 80.9 | 90.6 | 100 |  |  |
| O=C(NCCOC(=O)c1ccccc1)c1ccc[n+](CC(=O)c2cccs2)c1.[Br-] [Compound 36, 1-(2-thien-2′-yl-2-oxoethyl)-3-[2-(benzoyloxy)ethylaminocarbonyl]-pyridinium bromide] |  |  | 27.6 | 59.2 | 74.2 | 83.9 | 100 |  |  |
| O=C=Nc1ccc[n+](CC(=O)c2ccc(Cl)cc2Cl)c1.[Br-] [Compound 82, 3-Carbonylamino-1-(2-(2,4-dichlorophenyl)-2-oxoethyl)-pyridinium bromide] |  |  | 26.0 | 44.3 | 62.7 | 75.5 | 100 |  |  |
| CCCCNC(=O)c1ccc[n+](CC(=O)c2ccc(Cl)cc2Cl)c1.[Br-] [Compound 97, 1-(2-(2,4-Dichlorophenyl)-2-oxoethyl)-3-(n-butylamino-carbonyl)pyridinium bromide] |  |  | 16.5 | 27 | 37.8 | 44.5 | 97.8 |  |  |
| O=C(C[n+]1cccc(C(=O)c2ccccc2)c1)c1ccccc1.[Br-] [Compound 98, 1-(2-Phenyl-2-oxoethyl)-3-(1-phenyl-1-oxomethyl)pyridinium bromide] |  |  | 7.1 | 26.9 | 51.1 | 78.6 | 99.1 |  |  |
| NC(=O)c1cccnc1 [Niacinamide, reference compound] |  |  | 0.0 | 2.2 | 3.8 | 3.8 | 9.2 |  |  |
